Laboratory results reported in ChEMBL document CHEMBL1130595, “New generation dopaminergic agents. 5. Heterocyclic bioisosteres that exploit the 3-OH-N1-phenylpiperazine dopaminergic template” (Bioorg Med Chem Lett, 1998).

What was measured:
D(2) dopamine receptor [1] = biological target: T1, D(2) dopamine receptor (Rattus norvegicus, UniProt P61169)
Description: Affinity for Dopamine receptor D2 in rat striatal membranes for high agonist state using [3H]quinpirole

D(4) dopamine receptor = biological target: T2, D(4) dopamine receptor (Homo sapiens, UniProt P21917); assay: Affinity towards human Dopamine receptor D4.4 expressed in CHO cells using [3H]spiperone; assay type: cell-based
T2 sequence (P21917 whole entry): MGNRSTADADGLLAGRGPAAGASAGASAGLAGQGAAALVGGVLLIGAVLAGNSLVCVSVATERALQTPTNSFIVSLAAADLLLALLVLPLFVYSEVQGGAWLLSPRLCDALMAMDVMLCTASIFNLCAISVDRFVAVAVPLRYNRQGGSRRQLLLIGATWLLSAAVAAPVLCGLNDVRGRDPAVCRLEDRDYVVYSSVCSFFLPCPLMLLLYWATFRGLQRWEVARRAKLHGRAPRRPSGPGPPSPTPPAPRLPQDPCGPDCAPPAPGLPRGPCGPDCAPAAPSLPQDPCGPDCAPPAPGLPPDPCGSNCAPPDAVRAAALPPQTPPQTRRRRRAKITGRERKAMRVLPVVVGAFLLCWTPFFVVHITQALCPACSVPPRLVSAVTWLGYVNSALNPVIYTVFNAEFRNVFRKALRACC

D(3) dopamine receptor = D(3) dopamine receptor (Homo sapiens, UniProt P35462); assay: Affinity towards human Dopamine receptor D3 expressed in CHO cells using [3H]spiperone; assay type: cell-based
D(2) dopamine receptor [2] = biological target: T3, D(2) dopamine receptor (Homo sapiens, UniProt P14416); assay: Affinity towards human Dopamine receptor D2 expressed in CHO cells using [3H]spiperone; assay type: cell-based
D(2) dopamine receptor [3] = biological target: T1, D(2) dopamine receptor; remark: listed apart in the source
Description: Affinity of compound for the Dopamine receptor D2 in rat striatal membranes was determined for low antagonist state in rat striatal membranes using [3H]spiperone

D(2) dopamine receptor [4] = biological target: T3, D(2) dopamine receptor; assay: Ratio of the affinity against D2 receptor at low antagonist state to that of D2 receptor at high agonist state; assay type: functional
D(2) dopamine receptor [5] = biological target: T1, D(2) dopamine receptor; assay: Affinity of compound for the D2 receptors in rat striatal membranes was determined for low antagonist state in rat striatal membranes using [3H]spiperone; assay type: functional, cell membranes, Membrane
D(2) dopamine receptor [6] = biological target: T1, D(2) dopamine receptor; assay: Affinity of compound for the Dopamine receptor D2 in rat striatal membranes was determined for […] in rat striatal membranes using [3H]spiperone; assay type: functional, cell membranes, Membrane

Chain of D(3) dopamine receptor (P35462 whole entry): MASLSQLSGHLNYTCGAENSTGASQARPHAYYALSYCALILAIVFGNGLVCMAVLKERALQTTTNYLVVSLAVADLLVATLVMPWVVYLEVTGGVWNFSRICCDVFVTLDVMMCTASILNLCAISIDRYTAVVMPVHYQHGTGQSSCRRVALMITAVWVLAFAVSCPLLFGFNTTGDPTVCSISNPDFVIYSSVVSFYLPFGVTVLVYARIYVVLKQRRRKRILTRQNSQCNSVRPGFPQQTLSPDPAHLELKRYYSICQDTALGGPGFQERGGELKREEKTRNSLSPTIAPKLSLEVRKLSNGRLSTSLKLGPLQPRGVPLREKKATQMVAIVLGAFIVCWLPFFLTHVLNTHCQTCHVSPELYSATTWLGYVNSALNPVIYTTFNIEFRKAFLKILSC
T3 sequence (P14416 whole entry): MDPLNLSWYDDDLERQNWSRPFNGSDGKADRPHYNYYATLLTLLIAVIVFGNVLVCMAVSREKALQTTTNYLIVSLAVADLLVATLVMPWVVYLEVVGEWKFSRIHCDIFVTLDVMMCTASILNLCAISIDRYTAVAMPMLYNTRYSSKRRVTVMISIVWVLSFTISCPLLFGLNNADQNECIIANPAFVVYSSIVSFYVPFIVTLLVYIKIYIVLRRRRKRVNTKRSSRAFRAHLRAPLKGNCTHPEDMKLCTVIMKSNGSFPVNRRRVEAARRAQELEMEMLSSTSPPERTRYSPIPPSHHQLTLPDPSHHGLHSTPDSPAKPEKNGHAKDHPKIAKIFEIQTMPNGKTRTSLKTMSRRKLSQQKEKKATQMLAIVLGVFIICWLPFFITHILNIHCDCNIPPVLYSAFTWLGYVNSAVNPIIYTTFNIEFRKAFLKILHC
T1 sequence (P61169 whole entry): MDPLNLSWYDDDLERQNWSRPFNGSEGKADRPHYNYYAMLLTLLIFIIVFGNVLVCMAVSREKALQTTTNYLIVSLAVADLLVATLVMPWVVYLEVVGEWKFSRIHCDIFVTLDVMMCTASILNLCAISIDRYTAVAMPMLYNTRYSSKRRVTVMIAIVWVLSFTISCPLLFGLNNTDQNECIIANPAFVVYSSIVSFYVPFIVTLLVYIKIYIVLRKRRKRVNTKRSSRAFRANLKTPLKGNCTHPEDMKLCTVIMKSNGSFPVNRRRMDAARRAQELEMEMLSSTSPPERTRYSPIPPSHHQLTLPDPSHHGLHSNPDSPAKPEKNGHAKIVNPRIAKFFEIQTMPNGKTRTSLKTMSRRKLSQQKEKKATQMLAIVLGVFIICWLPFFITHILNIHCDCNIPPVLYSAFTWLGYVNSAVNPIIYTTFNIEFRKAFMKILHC

Compound | Ki (D(4) dopamine receptor) [nM] | Ki (D(3) dopamine receptor) [nM] | Ki (D(2) dopamine receptor [5]) [nM] | Ki (D(2) dopamine receptor [1]) [nM] | Ki (D(2) dopamine receptor [2]) [nM] | Ki (D(2) dopamine receptor [3]) [nM] | Ratio (D(2) dopamine receptor [4]) | Ki (D(2) dopamine receptor [6]) [nM]
O=c1[nH]c2cccc(N3CCN(Cc4ccccc4)CC3)c2[nH]1 | 14.4 | 56.5 | – | – | – | – | – | –
Brc1ccc(N2CCN(Cc3ccccc3)CC2)c2cc[nH]c12 | 2.6 | 56 | – | 26.8 | 47 | 12.2 | 0.5 | –
O=C1Cc2c(cccc2N2CCN(Cc3ccccc3)CC2)N1 | 3 | 5.4 | – | 0.56 | 8 | 8.1 | 14 | –
FC(F)(F)c1nc2c(N3CCN(Cc4ccccc4)CC3)cccc2[nH]1 | 2.9 | 14.7 | – | 0.51 | 4.1 | – | 6 | 3.3

Second part, led by results:

Ki (D(4) dopamine receptor) [nM] | Ki (D(3) dopamine receptor) [nM] | Ki (D(2) dopamine receptor [5]) [nM] | Compound | Ki (D(2) dopamine receptor [1]) [nM] | Ki (D(2) dopamine receptor [2]) [nM] | Ki (D(2) dopamine receptor [3]) [nM] | Ratio (D(2) dopamine receptor [4]) | Ki (D(2) dopamine receptor [6]) [nM]
47 | 870 | – | c1ccc(CN2CCN(c3cccc4[nH]cnc34)CC2)cc1 | 9.7 | 258 | 107 | 11 | –
1.7 | 95.3 | 42.3 | Clc1ccc2[nH]ccc2c1N1CCN(Cc2ccccc2)CC1 | 9.1 | 81.3 | – | 5 | –
8.8 | 591 | – | O=C1Cc2c(ccc(Cl)c2N2CCN(Cc3ccccc3)CC2)N1 | 84.8 | 540 | 403 | 7 | –
14.7 | 35.4 | – | c1ccc(CN2CCN(c3cccc4[nH]ccc34)CC2)cc1 | – | – | – | – | –
